Measurements from PubChem BioAssay (NCI).
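96-well plates; 48 h exposure; 5 concentrations. Endpoints by linear interpolation between flanking doses. Not reached: highest tested concentration assigned. TGI: total growth inhibition.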

Tests used:
Assay in all cases: growth of human tumour cells (NCI), 48 h
SF-268 CNS = test system: SF-268 CNS
SK-MEL-2 melanoma = test system: SK-MEL-2 melanoma
ACHN renal = test system: ACHN renal
LOX IMVI melanoma = test system: LOX IMVI melanoma
RPMI-8226 leukemia = test system: RPMI-8226 leukemia
OVCAR-5 ovarian = test system: OVCAR-5 ovarian
IGROV1 ovarian = test system: IGROV1 ovarian
OVCAR-3 ovarian = test system: OVCAR-3 ovarian
HT29 colon = test system: HT29 colon
NCI-H226 lung = test system: NCI-H226 lung
BT-549 breast = test system: BT-549 breast
T-47D breast = test system: T-47D breast

SMILES	TGI (SF-268 CNS) [µM]	TGI (SK-MEL-2 melanoma) [µM]	TGI (ACHN renal) [µM]	TGI (LOX IMVI melanoma) [µM]	TGI (RPMI-8226 leukemia) [µM]	TGI (OVCAR-5 ovarian) [µM]	TGI (IGROV1 ovarian) [µM]	TGI (OVCAR-3 ovarian) [µM]	TGI (HT29 colon) [µM]	TGI (NCI-H226 lung) [µM]	TGI (BT-549 breast) [µM]	TGI (T-47D breast) [µM]
CCOC(=O)C1=C(C)N(c2ccccc2)C2=C(C(=O)N(c3ccccc3)C2c2ccccc2)C1c1ccccc1 (stereo not given)	> 100	> 100	> 100	> 100	> 100	> 100	> 100	> 100	> 100	> 100	–	–
C[C@]12OC[C@H](c3ccccc3)N1C(=O)C1[C@H]2CC12SCCS2 (stereo not given in full)	> 100	> 100	> 100	–	> 100	> 100	> 100	> 100	> 100	> 100	> 100	> 100
COc1ccc(/C(=C/n2ccnc2)C(=O)c2ccc(OC)c(OC)c2)cc1	> 100	> 100	> 100	> 100	> 100	> 100	–	> 100	–	> 100	–	–
CC(C)C(Sc1nc(-c2ccccc2)c(-c2ccccc2)[nH]1)C(=O)NNC(=S)Nc1ccccc1 (stereo not given)	46.5	36.6	87	29.3	39.6	32.6	35.7	29	36.8	37.2	–	–
C=CCN(CC=C)Cn1c(=S)sc2ccccc21	> 100	> 100	> 100	47.1	–	> 100	> 100	> 100	–	–	> 100	–
Cc1c(/C=N\NC(=S)N2CCN(C(=S)N/N=C\c3c(C)n(C)n(-c4ccccc4)c3=O)CC2)c(=O)n(-c2ccccc2)n1C	> 100	92.7	> 100	–	–	> 100	–	> 100	34.9	> 100	> 100	> 100
CC(C)(C)C(=O)C(CC(=O)c1ccccc1)C(=O)C(C)(C)C	> 100	> 100	> 100	> 100	> 100	> 100	> 100	> 100	> 100	> 100	–	> 100
O=C1NC(c2ccc(O)cc2)C2CCC1C2 (stereo not given)	> 100	> 100	> 100	–	> 100	> 100	> 100	> 100	> 100	> 100	–	–
CC(C)CC(N)C(=O)OCN1C(=O)C2C3C=CC(C2C1=O)C1C2C(=O)N(COC(=O)C(N)CC(C)C)C(=O)C2C31 (stereo not given)	> 100	> 100	> 100	> 58.1	> 78.6	> 100	> 100	> 100	> 100	> 100	–	–
CCN(CC)CCn1c2cc3c(cc2c(=O)c2cccnc21)OCCO3	> 10	–	> 10	–	> 10	–	> 10	> 10	> 10	–	> 10	> 10
CO[C@@H](C(=O)OC1C=CC2(CC1)C(=O)N(C)c1ccccc12)c1ccccc1 (stereo not given in full)	–	> 100	> 100	> 100	> 100	> 100	> 100	> 100	> 100	–	–	> 100
Cc1c(Cl)cccc1NC(=O)C(=O)C1C(=O)CC(C)(C)CC1=O	> 100	> 100	> 100	> 100	> 100	> 100	> 100	> 100	> 100	> 100	–	–
Cc1c(S(=O)(=O)c2ccccc2)c(N)n(Cc2ccccc2)c1C	> 100	> 100	> 100	–	> 100	> 100	> 100	> 100	> 100	> 100	> 100	–
c1cc2nnc1SCCSCCSc1ccc(nn1)SCCSCCS2	> 100	> 100	> 100	> 100	> 100	> 100	> 100	> 100	> 100	> 100	–	> 100
Nc1nc2ncc(SCc3ccc(C(=O)NC(CCC(=O)O)C(=O)O)cc3)cc2c(=O)[nH]1 (stereo not given)	> 100	> 100	> 100	> 100	> 100	> 100	> 100	> 100	> 100	> 100	> 100	–
COC1(C)CC2N(C(=O)c3ccccc3)N=C(c3ccccc3)CC2(C)O1 (stereo not given)	> 100	> 100	> 100	> 100	> 100	> 100	> 100	> 100	> 100	> 100	–	–
COc1ccc(C2C(Cl)C(=O)N2NC(=O)c2ccc(NC(C)=O)cc2)cc1 (stereo not given)	> 100	> 100	> 100	> 100	–	> 100	> 100	> 100	> 100	> 100	–	–
N#Cc1c(N)[nH]c(=S)c(C#N)c1-c1cccc(Cl)c1	56.1	56.6	> 100	> 100	94.5	> 100	> 100	> 100	> 100	> 100	> 100	–
Cc1cn(C2C=CC(COP(=O)(OCC3=CC(=O)c4ccccc4C3=O)N(C)CCCCCl)O2)c(=O)[nH]c1=O (stereo not given)	24.4	27.2	26.4	8.66	20.8	27.1	22.4	19.1	29.4	25	–	9.26
O=C1CC2(C[C@@H]3CCCCCCCCC[C@@H](C3)C2)N1 (stereo not given in full)	39.8	37.7	29.3	–	51.1	29.6	27.9	–	26.9	30.8	–	–
O=C1CC2C=CC(O)C(C1)C2 (stereo not given)	> 100	> 100	> 100	> 100	> 100	> 100	> 100	> 100	> 100	> 100	–	> 100
